Experimental data as given in BindingDB's records for doi:10.1021/jm070574f (University of Copenhagen, 2007).

Biological target: Neuronal acetylcholine receptor subunit alpha-7 (Homo sapiens, UniProt P36544)
Assay: Antagonist activity at human alpha-7 nAChR in tsA201 cells coexpressed with Ric3 by FMP assay

Sequence of Neuronal acetylcholine receptor subunit alpha-7 (P36544 whole entry): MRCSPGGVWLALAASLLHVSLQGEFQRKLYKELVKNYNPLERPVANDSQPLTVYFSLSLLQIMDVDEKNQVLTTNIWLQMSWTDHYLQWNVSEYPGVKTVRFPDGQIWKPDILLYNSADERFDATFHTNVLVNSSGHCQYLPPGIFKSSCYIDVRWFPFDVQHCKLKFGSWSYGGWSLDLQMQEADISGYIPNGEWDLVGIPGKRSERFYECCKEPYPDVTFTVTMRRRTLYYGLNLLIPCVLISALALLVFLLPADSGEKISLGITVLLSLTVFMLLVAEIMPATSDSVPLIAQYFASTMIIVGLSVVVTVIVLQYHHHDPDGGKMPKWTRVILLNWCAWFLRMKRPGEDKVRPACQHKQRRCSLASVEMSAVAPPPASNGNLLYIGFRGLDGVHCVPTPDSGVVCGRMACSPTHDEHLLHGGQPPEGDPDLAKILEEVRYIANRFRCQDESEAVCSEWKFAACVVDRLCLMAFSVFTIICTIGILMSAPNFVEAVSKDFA

Structure (SMILES): CCN1C[C@]2(COC(=O)c3ccccc3-n3c(O)cc(C)c3O)CC[C@H](OC)[C@]34[C@@H]5C[C@H]6[C@H](OC)[C@@H]5[C@](O)(C[C@@H]6OC)[C@@](O)([C@H]13)[C@@H](OC)[C@H]24 [METHYLLYCACONITINE]
- IC50: 8.3 nM
